One test concerns the target human A2A receptor (Homo sapiens (Human), UniProt P29274). The experiment in a line: A2A competition binding assay using Scintillation Proximity technology. The settings on record: 0.25 μg of membranes from HEK293 cells expressing the human A2a receptor per well; 0.5 nM tritiated radioligand; Cheng-Prusoff. The method, then: Binding affinities of compounds of the invention for the human A2A receptor were determined in a competition binding assay using Scintillation Proximity technology. Thus, 1^μg (^ denotes 1 μg of membrane/well), or preferably 0.25 μg of membranes from HEK293 cells expressing the human A2a receptor were incubated with a compound of the invention at concentrations ranging from 3000 nM to 0.15 nM in a reaction mixture containing also 0.5 nM of a tritiated form of 5-amino-7-[2-phenethyl]-2-(furan-2-yl)-7H-pyrazolo[4,3-e][1,2,4]triazolo[1,5-c]pyrimidine (the tritiated compound) and 25 μg of wheat germ agglutin-coated yttrium silicate SPA beads for one hour at room temperature with agitation. The beads were then allowed to settle to the bottom of the wells for 1 hr, after which the membrane-associated radioactivity was determined by scintillation counting in a TopCount microplate reader. Ki values were determined using the Cheng-Prusoff equation.
HEK293 cells expressing the human, rat, dog or monkey adenosine 2a receptor (Purchased from Perkin-Elmer # RBHA2AM400UA).
The Tritiated compound was prepared in-house by MRL Radiochemistry according to published methods.
Wheat germ agglutinin-coated yttrium silicate SPA beads (GE Healthcare #RPNQ0023). Dilute to 25 mg/mL in assay buffer.
Assay Buffer was prepared in house: Dulbecco's calcium and magnesium free phosphate buffered saline+10 mM MgCl2
Adenosine deaminase from calf intestine, 10 mg/2 mL (Roche #10 102 105 001).
A2A antagonist standard (9-chloro-1-(2-furanyl)-[1,2,4]triazolo[1,5-c]quinazolin-5-amine from Tocris Bioscience)
Make eight 1:3 serial dilutions in 100% DMSO from a 3 mM compound stock
Transfer 50 nL of compound into a 384-well OptiPlate (Perkin Elmer).
Typically, final concentrations of compound used in the assay ranged from 3000 nM to 0.152 nM.
Dilute a solution of the Tritiated compound to 1.25 nM in assay buffer. This a 2.5× solution. The final concentration in the assay is 0.5 nM. Calculate the concentration by counting two 5 μL aliquots.
Use *1 ug or preferrably 0.25 ug of membrane/well. Dilute membranes to 9.7 μg/ml in assay buffer. Treat with 20 ug/ml adenosine deaminase (ADA) for 15 minutes at room temperature to degrade endogenous adenosine.
Use 25 μg/well wheat germ agglutinin-coated yttrium silicate SPA beads.
Mix ADA-treated membranes and SPA beads together for 30 min prior to assay.
To the Perkin-Elmer Optiplate-384 containing the compound titration add 20 μL of 2.5× solution of the Tritiated compound and 30 μL of the membrane-bead mixture. Incubate for one hour at room temperature with agitation.
Include total binding (assay buffer+1% DMSO) and non-specific binding (CGS15943, 1 μM) wells.
Allow the beads to settle for one hour.
A curve fitting program (i.e., Prism, Activity Base, Chemcart) is used to determine the EC50. The Ki value is calculated using the Cheng-Prusoff equation. Ki=EC50/(1+(radioligand concentration/Kd)) Counting and Calculations
Counting and calculations were performed as described within the “A2A Activity Binding of Compounds of the Invention” section. Using the foregoing methods, the following results were obtained using compounds of the invention described herein. Each example compound tested is reported in the following format: Example number: A2A Ki (nM) selectivity.
In general terms: In a scintillation proximity assay essentially only radioactivity close to the scintillant gives light.
Sequence of human A2A receptor (P29274 whole entry): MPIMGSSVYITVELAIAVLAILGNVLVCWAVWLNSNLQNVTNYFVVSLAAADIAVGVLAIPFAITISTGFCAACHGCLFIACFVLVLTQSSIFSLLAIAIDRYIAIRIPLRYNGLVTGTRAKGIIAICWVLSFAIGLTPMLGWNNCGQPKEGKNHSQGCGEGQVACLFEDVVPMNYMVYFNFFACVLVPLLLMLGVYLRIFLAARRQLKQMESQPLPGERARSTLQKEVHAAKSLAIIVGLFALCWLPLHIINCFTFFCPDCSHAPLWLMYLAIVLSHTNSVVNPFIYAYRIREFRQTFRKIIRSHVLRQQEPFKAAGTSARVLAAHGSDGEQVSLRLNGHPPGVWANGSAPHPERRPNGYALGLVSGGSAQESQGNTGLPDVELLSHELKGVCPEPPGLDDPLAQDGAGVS
Usually Ki stands for the equilibrium dissociation constant of an inhibitor or competing ligand from its target. Read a high Ki as lower affinity. `COc1cccc2c1nc(N)n1nc(C3CCC(F)(F)CN3)nc21` (single isomer, unassigned) [Example 58A, 2-(5,5-difluoropiperidin-2-yl)-7-methoxy-[1,2,4]triazolo[1,5-c]quinazolin-5-amine]: the Ki amounted to 2.4 nM.
`COc1cccc2c1nc(N)n1nc([C@H]3CCCN(CCC(F)(F)F)C3)nc21` [Example 12, (S)-7-methoxy-2-(1-(3,3,3-trifluoropropyl)piperidin-3-yl)-[1,2,4]triazolo[1,5-c]quinazolin-5-amine] displayed a Ki of 14 nM. This Ki lies about 5.8-fold higher than the previous one.
In turn, `Nc1nc2c(OC(F)F)cccc2c2nc([C@@H]3CCCN(CC(F)F)C3)nn12` [Example 25, (R)-2-(1-(2,2-difluoroethyl)piperidin-3-yl)-7-(difluoromethoxy)-[1,2,4]triazolo[1,5-c]quinazolin-5-amine] gave a Ki of 1.2 nM.
Same read-out and setting: to `COc1cccc2c1nc(N)n1nc([C@@H]3CCCN(CCC4CC4)C3)nc21` [Example 14, (R)-2-(1-(2-cyclopropylethyl)piperidin-3-yl)-7-methoxy-[1,2,4]triazol[1,5-c]quinazolin-5-amine] belongs 6.9 nM; to `COc1cccc2c1nc(N)n1nc([C@H]3CN(C4CCC(F)(F)CC4)CCO3)nc21` [Example 54, (R)-2-(4-(4,4-difluorocyclohexyl)morpholin-2-yl)-7-methoxy-[1,2,4]triazolo[15-c]quinazolin-5-amine], 3 nM.
Still for that read-out and setting: to `COc1cccc2c1nc(N)n1nc([C@@H]3CCCN(CCC(F)(F)F)C3)nc21` [Example 1, (R)-7-methoxy-2-(1-(3,3,3-trifluoropropyl)piperidin-3-yl)-[1,2,4]triazolo[1,5-d]quinazolin-5-amine] belongs 0.6 nM; to `COc1cccc2c1nc(N)n1nc(C3CC(F)(F)CCO3)nc21` (single isomer, unassigned) [Example 55A, 2-(4,4-difluorotetrahydro-2H-pyran-2-yl)-7-methoxy-[1,2,4]triazolo[1,5-c]quinazolin-5-amine], 1.9 nM.
The compound `COc1cccc2c1nc(N)n1nc([C@@H]3CCCN(CC4CCCC4)C3)nc21` [Example 47, 2-((3R)-1-(cyclopentylmethyl)piperidin-3-yl)-7-methoxy[1,2,4]triazolo [1,5-c]quinazolin-5-amine] showed a Ki of 9.7 nM.
On to `COc1cccc2c1nc(N)n1nc(C3CCCCN(CC(F)(F)F)C3)nc21` (single isomer, unassigned) [Example 32A, 7-methoxy-2-(1-(2,22-trifluoroethyl)azepan-3-yl)-[1,2,4]triazolo[1,5-c]quinazolin-5-amine], for which affinity was put at a Ki of 0.7 nM. Compared with the last compound, the Ki is about 14-fold lower.
On the same count and under the same terms, in the case of `COc1cccc2c1nc(N)n1nc([C@@H]3CCCN(CCN(C)C)C3)nc21` [Example 4, (R)-2-(1-(2-(dimethylamino)ethyl)piperidin-3-yl)-7-methoxy-[1,2,4]triazolo[1,5-c]quinazolin-5-amine] it was 5.4 nM.
Same read-out and setting: in the case of `COc1cccc2c1nc(N)n1nc(C3CCCC(CCC(F)(F)F)C3)nc21` (single isomer, unassigned) [Example 29C, 7-methoxy-2-(3-(3,3,3-trifluoropropyl)cyclohexyl)-[1,2,4]triazolo[1,5-c]quinazolin-5-amine] it was 0.4 nM.
The compound `COc1cccc2c1nc(N)n1nc(C3CNCC(F)(F)C3)nc21` (single isomer, unassigned) [Example 33B, 2-(5,5-difluoropiperidin-3-1-yl)-7-methoxy-[1,2,4]triazolo[1,5-c]quinazolin-5-amine] registered a Ki of 2.4 nM. This Ki is about 6-fold higher than that of the compound before.
On the same count and under the same terms, in the case of `COCCN1CCC[C@@H](c2nc3c4cccc(OC)c4nc(N)n3n2)C1` [Example 6, (R)-7-methoxy-2-(1-(2-methoxyethyl)piperidin-3-yl)-[1,2,4]triazolo[1,5-c]quinazolin-5-amine] it was 3.1 nM.
The same measure, in the same setting: to `COc1cccc2c1nc(N)n1nc([C@@H]3CCCN(CCC(F)(F)C(F)(F)F)C3)nc21` [Example 11, (R)-7-methoxy-2-(1-(3,3,4,4,4-pentafluorobutyl)piperidin-3-yl)-[1,2,4]triazolo[1,5-c]quinazolin-5-amine] belongs 0.4 nM; to `COc1cccc2c1nc(N)n1nc(C3CC4CCC3N(CC(F)(F)F)C4)nc21` (single isomer, unassigned) [Example 35A, 7-methoxy-2-(2-(2,2,2-trifluoroethyl)-2-azabicyclo[2.2.2]octan-6-yl)-[1,2,4]triazolo[1,5-c]quinazolin-5-amine], 21 nM; to `COc1cccc2c1nc(N)n1nc(C3CN(CC(F)F)CC(F)(F)C3)nc21` (single isomer, unassigned) [Example 34B, 2-(1-(2,2-difluoroethyl)-5,5-difluoropiperidin-3-yl)-7-methoxy-[1,2,4]triazolo[1,5-c]quinazolin-5-amine], 4.7 nM.
Same read-out and setting: to `COc1cccc2c1nc(N)n1nc([C@@H]3CCCNC3)nc21` [Example 13, (R)-7-methoxy-2-(piperidin-3-yl)-[1,2,4]triazolo[1,5-c]quinazolin-5-amine] belongs 93 nM; to `COc1cccc2c1nc(N)n1nc(C3CC4CCC3N(CC(F)(F)F)C4)nc21` (single isomer, unassigned) [Example 35D, 7-methoxy-2-(2-(2,2,2-trifluoroethyl)-2-azabicyclo[2.2.2]octan-6-yl)-[1,2,4]triazolo[1,5-c]quinazolin-5-amine], 9.9 nM.

The test is the same for the next values; noted with them: values marked ^: 1 μg of membrane/well (HEK293 cells expressing the human A2a receptor); 0.5 nM tritiated radioligand; Cheng-Prusoff.
Consider `COc1cccc2c1nc(N)n1nc([C@@H]3CCCN(C(=O)c4cccs4)C3)nc21` [Example 39, 7-methoxy-2-((3R)-1-(thiophen-2-ylcarbonyl)piperidin-3-yl)[1,2,4]triazolo[1,5-c]quinazolin-5-amine], for which the affinity corresponds to a Ki of 2.7 nM.
The same measure, in the same setting: in the case of `COc1cccc2c1nc(N)n1nc(C3CCCN(c4ccccc4)C3)nc21` (single isomer, unassigned) [Example 50A, 7-methoxy-2-(1-phenylpiperidin-3-yl)-[1,2,4]triazolo[1,5-c]quinazolin-5-amine] it was 0.9 nM; in that of `COc1cccc2c1nc(N)n1nc([C@@H]3CCCN(c4ncc(C)s4)C3)nc21` [Example 22, (R)-7-methoxy-2-(1-(5-methylthiazol-2-yl)piperidin-3-yl)-[1,2,4]triazolo[1,5-c]quinazolin-5-amine], 0.8 nM; in that of `COc1cccc2c1nc(N)n1nc([C@@H]3CCCN(c4ncns4)C3)nc21` [Example 21, (R)-2-(1-(1,2,4-thiadiazol-5-yl)piperidin-3-yl)-7-methoxy-[1,2,4]triazolo[1,5-c]quinazolin-5-amine], 3.2 nM.
`CCCCN1CCC[C@@H](c2nc3c4cccc(OC)c4nc(N)n3n2)C1` [Example 7, (R)-2-(1-butylpiperidin-3-yl)-7-methoxy-[1,2,4]triazolo[1,5-c]quinazolin-5-amine] yielded a Ki of 29 nM.
The same measure, in the same setting: in the case of `COc1cccc(C(=O)N2CCC[C@@H](c3nc4c5cccc(OC)c5nc(N)n4n3)C2)c1` [Example 41, 7-methoxy-2-((3R)-1-((3-methoxyphenyl)carbonyl)piperidin-3-yl)[1,2,4]triazolo[1,5-c]quinazolin-5-amine] it was 1.9 nM; in that of `COc1cccc2c1nc(N)n1nc([C@@H]3CCCN(c4nncs4)C3)nc21` [Example 20, (R)-2-(1-(1,3,4-thiadiazol-2-yl)piperidin-3-yl)-7-methoxy-[1,2,4]triazolo[1,5-c]quinazolin-5-amine], 1.9 nM; in that of `COc1cccc2c1nc(N)n1nc([C@@H]3CCCN(C(=O)C(C)(C)C)C3)nc21` [Example 38, 2-((3R)-1-(2,2-dimethylpropanoyl)piperidin-3-yl)-7-methoxy[1,2,4]triazolo [1,5-c]quinazolin-5-amine], 4.4 nM.
On the same count and under the same terms, in the case of `CCN1CCC[C@@H](c2nc3c4cccc(OC)c4nc(N)n3n2)C1` [Example 5, (R)-2-(1-ethylpiperidin-3-yl)-7-methoxy-[1,2,4]triazolo[1,5-c]quinazolin-5-amine] it was 34 nM.
